# Source: US10681909B2, “Herbicidal triazoles” (FMC Corporation, priority 2014, dated 2020)
# Key:
# [1] = system: ryegrass, Italian; test: Test C preemergence; type: in vivo, Lolium multiflorum; details: for Ryegrass, Italian plant response rating (0 to 100): Preemergence, visual rating after 13 to 15 d; for Plant response rating (scale of 0 to 100 where 0 is no effect and 100 is complete control): Ryegrass, Italian, preemergence
# From the text: (§1) Seeds of plant species selected from blackgrass (Alopecurus myosuroides), ryegrass, Italian (Italian ryegrass, Lolium multiflorum), wheat (winter wheat, Triticum aestivum), galium (catchweed bedstraw, Galium aparine), corn (Zea mays), crabgrass, large (large crabgrass, Digitaria sanguinalis), foxtail, giant, (giant foxtail, Setaria faberii), johnsongrass (Sorghum halepense), lambsquarters (Chenopodium album), morningglory (Ipomoea coccinea), nutsedge, yellow (yellow nutsedge, Cyperus esculentus), pigweed (Amaranthus retroflexus), ragweed (common ragweed, Ambrosia elatior), soybean (Glycine max), barnyardgrass (Echinochloa crus-galli), oilseed rape (Brassica napus), waterhemp (common waterhemp, Amaranthus rudis), and velvetleaf (Abutilon theophrasti) were planted into a blend of loam soil and sand and treated preemergence with test chemicals formulated in a non-phytotoxic solvent mixture which included a surfactant. At the same time, plants selected from these crop and weed species and also chickweed (common chickweed, Stellaria media), oat, wild (wild oat, Avena fatua), and kochia (Kochia scoparia), were planted in pots containing Sunshine Redi-Earth® planting medium comprising spaghnum peat moss, vermiculite, starter nutrients and dolomitic limestone and treated with postemergence applications of test chemicals formulated in the same manner. Plants ranged in height from 2 to 18 cm (1- to 4-leaf stage) for postemergence treatments. […] A dash (-) response means no test result.
# [2] = system: galium; test: Test C preemergence; type: in vivo, Galium aparine; details: for Plant response rating (scale of 0 to 100 where 0 is no effect and 100 is complete control): Galium, preemergence; for Galium plant response rating (0 to 100): Preemergence, visual rating after 13 to 15 d
# From the text: as §1
# [3] = system: johnsongrass; test: Test C preemergence; type: in vivo, Sorghum halepense; details: for Plant response rating (scale of 0 to 100 where 0 is no effect and 100 is complete control): Johnsongrass, preemergence; for Johnsongrass plant response rating (0 to 100): Preemergence, visual rating after 13 to 15 d
# From the text: as §1
# [4] = system: nutsedge, yellow; test: Test C preemergence; type: in vivo, Cyperus esculentus; details: for Plant response rating (scale of 0 to 100 where 0 is no effect and 100 is complete control): Nutsedge, Yellow, preemergence; for Nutsedge, Yellow plant response rating (0 to 100): Preemergence, visual rating after 13 to 15 d
# From the text: as §1
# [5] = system: blackgrass; test: Test D preemergence; type: in vivo, Alopecurus myosuroides; details: for Plant response rating (0 to 100), Blackgrass: 16 g ai/ha, 0 is no effect, 100 is complete control; for Plant response rating: Blackgrass: scale 0 to 100
# From the text: (§2) Seeds of plant species selected from bluegrass (annual bluegrass, Poa annua), blackgrass (Alopecurus myosuroides), canarygrass (Phalaris minor), chickweed (common chickweed, Stellaria media), galium (catchweed bedstraw, Galium aparine), bromegrass, down (downy bromegrass, Bromus tectorum), Russian thistle (Salsola kali), field poppy (Papaver rhoeas), field violet (Viola arvensis), foxtail, green (green foxtail, Setaria viridis), deadnettle (henbit deadnettle, Lamium amplexicaule), ryegrass, Ital. (Italian ryegrass, Lolium multiflorum), kochia (Kochia scoparia), lambsquarters (Chenopodium album), oilseed rape (Brassica napus), pigweed (Amaranthus retroflexus), chamomile (scentless chamomile, Matricaria inodora), speedwell (bird's-eye speedwell, Veronica persica), barley, spring (spring barley, Hordeum vulgare), wheat, spring (spring wheat, Triticum aestivum), buckwheat, wild (wild buckwheat, Polygonum convolvulus), wild mustard (Sinapis arvensis), oat, wild (wild oat, Avena fatua), radish, wild (wild radish, Raphanus raphanistrum), […]), barley, winter (winter barley, Hordeum vulgare), and wheat, winter (winter wheat, Triticum aestivum) were planted into a silt loam soil and treated preemergence with test chemicals formulated in a non-phytotoxic solvent mixture which included a surfactant. At the same time, these species were planted in pots containing Sunshine Redi-Earth® planting medium comprising spaghnum peat moss, vermiculite, starter nutrients and dolomitic limestone and treated with postemergence applications of the test chemicals formulated in the same manner. Plants ranged in height from 2 to 18 cm (1- to 4-leaf stage). Treated plants and controls were maintained in a controlled growth environment for 14 to 21 d after which time all species were compared to controls and visually evaluated. […] A dash (-) response means no test result.
# [6] = system: Russian thistle; test: Test D preemergence; type: in vivo, Salsola kali; details: for Plant response rating (0 to 100), Russian Thistle: 16 g ai/ha, 0 is no effect, 100 is complete control; for Plant response rating: Russian Thistle: scale 0 to 100
# From the text: as §2
# [7] = system: barley, spring; test: Test D preemergence; type: in vivo, Hordeum vulgare; details: for Plant response rating (0 to 100), Barley, Spring: 16 g ai/ha, 0 is no effect, 100 is complete control; for Plant response rating: Barley, Spring: scale 0 to 100
# From the text: as §2
# [8] = system: barley, winter; test: Test D preemergence; type: in vivo, Hordeum vulgare; details: for Plant response rating (0 to 100), Barley, Winter: 16 g ai/ha, 0 is no effect, 100 is complete control; for Plant response rating: Barley, Winter: scale 0 to 100
# From the text: as §2
# [9] = system: wild mustard; test: Test D preemergence; type: in vivo, Sinapis arvensis; details: for Plant response rating (0 to 100), Mustard, Wild: 16 g ai/ha, 0 is no effect, 100 is complete control; for Plant response rating: Mustard, Wild: scale 0 to 100
# From the text: as §2
# [10] = system: chickweed; test: Test D postemergence; type: in vivo, Stellaria media; details: scale 0 to 100
# From the text: as §2
# [11] = system: galium; test: Test D postemergence; type: in vivo, Galium aparine; details: scale 0 to 100
# From the text: as §2
# [12] = system: deadnettle; test: Test D postemergence; type: in vivo, Lamium amplexicaule; details: scale 0 to 100
# From the text: as §2
smiles,measurement,setting,value
"CCOc1nc(-c2ccc(C(F)(F)F)cc2)nn1Cc1ccnc(C(F)(F)F)c1 [Compound 35, 4-[[5-ethoxy-3-[4-(trifluoromethyl)phenyl]-1H-1,2,4-triazole-1-yl]methyl]-2-(trifluoromethyl)pyridine]","Ryegrass, Italian plant response rating (0 to 100)",[1]; 31 g ai/ha,70
same,"Ryegrass, Italian plant response rating (0 to 100)",[1]; 62 g ai/ha,85
same,Plant response rating (scale of 0 to 100 where 0 is no effect and 100 is complete control),[1]; 125 g ai/ha,90
same,Plant response rating (scale of 0 to 100 where 0 is no effect and 100 is complete control),[1]; 250 g ai/ha,90
same,Plant response rating (scale of 0 to 100 where 0 is no effect and 100 is complete control),[2]; 125 g ai/ha,90
same,Plant response rating (scale of 0 to 100 where 0 is no effect and 100 is complete control),[2]; 250 g ai/ha,90
same,Galium plant response rating (0 to 100),[2]; 31 g ai/ha,50
same,Galium plant response rating (0 to 100),[2]; 62 g ai/ha,80
same,Plant response rating (scale of 0 to 100 where 0 is no effect and 100 is complete control),[3]; 125 g ai/ha,95
same,Plant response rating (scale of 0 to 100 where 0 is no effect and 100 is complete control),[3]; 250 g ai/ha,98
same,Johnsongrass plant response rating (0 to 100),[3]; 31 g ai/ha,90
same,Johnsongrass plant response rating (0 to 100),[3]; 62 g ai/ha,95
same,Plant response rating (scale of 0 to 100 where 0 is no effect and 100 is complete control),[4]; 125 g ai/ha,0
same,Plant response rating (scale of 0 to 100 where 0 is no effect and 100 is complete control),[4]; 250 g ai/ha,0
same,"Nutsedge, Yellow plant response rating (0 to 100)",[4]; 31 g ai/ha,0
same,"Nutsedge, Yellow plant response rating (0 to 100)",[4]; 62 g ai/ha,0
same,"Plant response rating (0 to 100), Blackgrass",[5],35
same,Plant response rating: Blackgrass,[5]; 31 g ai/ha,40
same,Plant response rating: Blackgrass,[5]; 62 g ai/ha,65
same,Plant response rating: Blackgrass,[5]; 125 g ai/ha,95
same,"Plant response rating (0 to 100), Russian Thistle",[6],70
same,Plant response rating: Russian Thistle,[6]; 62 g ai/ha,80
same,Plant response rating: Russian Thistle,[6]; 125 g ai/ha,85
same,"Plant response rating (0 to 100), Barley, Spring",[7],30
same,"Plant response rating: Barley, Spring",[7]; 31 g ai/ha,40
same,"Plant response rating: Barley, Spring",[7]; 62 g ai/ha,40
same,"Plant response rating: Barley, Spring",[7]; 125 g ai/ha,50
same,"Plant response rating (0 to 100), Barley, Winter",[8],25
same,"Plant response rating: Barley, Winter",[8]; 31 g ai/ha,40
same,"Plant response rating: Barley, Winter",[8]; 62 g ai/ha,40
same,"Plant response rating: Barley, Winter",[8]; 125 g ai/ha,50
same,"Plant response rating (0 to 100), Mustard, Wild",[9],70
same,"Plant response rating: Mustard, Wild",[9]; 62 g ai/ha,100
same,"Plant response rating: Mustard, Wild",[9]; 125 g ai/ha,100
same,Plant response rating: Chickweed,[10]; 16 g ai/ha,70
same,Plant response rating: Chickweed,[10]; 31 g ai/ha,85
same,Plant response rating: Chickweed,[10]; 62 g ai/ha,100
same,Plant response rating: Chickweed,[10]; 125 g ai/ha,100
same,Plant response rating: Galium,[11]; 16 g ai/ha,70
same,Plant response rating: Galium,[11]; 31 g ai/ha,75
same,Plant response rating: Galium,[11]; 62 g ai/ha,80
same,Plant response rating: Galium,[11]; 125 g ai/ha,80
same,Plant response rating: Deadnettle,[12]; 16 g ai/ha,55
same,Plant response rating: Deadnettle,[12]; 31 g ai/ha,65
same,Plant response rating: Deadnettle,[12]; 62 g ai/ha,75
same,Plant response rating: Deadnettle,[12]; 125 g ai/ha,90
CCOc1nc(-c2ccccc2)nn1Cc1ccnc(C(F)(F)F)c1 [Compound 27],"Ryegrass, Italian plant response rating (0 to 100)",[1]; 31 g ai/ha,25
same,"Ryegrass, Italian plant response rating (0 to 100)",[1]; 62 g ai/ha,30
same,Plant response rating (scale of 0 to 100 where 0 is no effect and 100 is complete control),[1]; 125 g ai/ha,90
same,Plant response rating (scale of 0 to 100 where 0 is no effect and 100 is complete control),[1]; 250 g ai/ha,95
same,Plant response rating (scale of 0 to 100 where 0 is no effect and 100 is complete control),[2]; 125 g ai/ha,95
same,Plant response rating (scale of 0 to 100 where 0 is no effect and 100 is complete control),[2]; 250 g ai/ha,95
same,Galium plant response rating (0 to 100),[2]; 31 g ai/ha,90
same,Galium plant response rating (0 to 100),[2]; 62 g ai/ha,95
same,Plant response rating (scale of 0 to 100 where 0 is no effect and 100 is complete control),[3]; 125 g ai/ha,80
same,Plant response rating (scale of 0 to 100 where 0 is no effect and 100 is complete control),[3]; 250 g ai/ha,100
same,Johnsongrass plant response rating (0 to 100),[3]; 31 g ai/ha,45
same,Johnsongrass plant response rating (0 to 100),[3]; 62 g ai/ha,80
same,Plant response rating (scale of 0 to 100 where 0 is no effect and 100 is complete control),[4]; 125 g ai/ha,35
same,Plant response rating (scale of 0 to 100 where 0 is no effect and 100 is complete control),[4]; 250 g ai/ha,60
same,"Nutsedge, Yellow plant response rating (0 to 100)",[4]; 31 g ai/ha,5
same,"Nutsedge, Yellow plant response rating (0 to 100)",[4]; 62 g ai/ha,10
same,"Plant response rating (0 to 100), Blackgrass",[5],25
same,Plant response rating: Blackgrass,[5]; 31 g ai/ha,30
same,Plant response rating: Blackgrass,[5]; 62 g ai/ha,45
same,Plant response rating: Blackgrass,[5]; 125 g ai/ha,70
same,"Plant response rating (0 to 100), Russian Thistle",[6],75
same,Plant response rating: Russian Thistle,[6]; 62 g ai/ha,85
same,Plant response rating: Russian Thistle,[6]; 125 g ai/ha,85
same,"Plant response rating (0 to 100), Barley, Spring",[7],25
same,"Plant response rating: Barley, Spring",[7]; 31 g ai/ha,25
same,"Plant response rating: Barley, Spring",[7]; 62 g ai/ha,35
same,"Plant response rating: Barley, Spring",[7]; 125 g ai/ha,35
same,"Plant response rating (0 to 100), Barley, Winter",[8],15
same,"Plant response rating: Barley, Winter",[8]; 31 g ai/ha,25
same,"Plant response rating: Barley, Winter",[8]; 62 g ai/ha,30
same,"Plant response rating: Barley, Winter",[8]; 125 g ai/ha,35
same,"Plant response rating (0 to 100), Mustard, Wild",[9],80
same,"Plant response rating: Mustard, Wild",[9]; 62 g ai/ha,100
same,"Plant response rating: Mustard, Wild",[9]; 125 g ai/ha,100
same,Plant response rating: Chickweed,[10]; 16 g ai/ha,85
same,Plant response rating: Chickweed,[10]; 31 g ai/ha,95
same,Plant response rating: Chickweed,[10]; 62 g ai/ha,100
same,Plant response rating: Chickweed,[10]; 125 g ai/ha,100
same,Plant response rating: Galium,[11]; 16 g ai/ha,70
same,Plant response rating: Galium,[11]; 31 g ai/ha,75
same,Plant response rating: Galium,[11]; 62 g ai/ha,100
same,Plant response rating: Galium,[11]; 125 g ai/ha,100
same,Plant response rating: Deadnettle,[12]; 16 g ai/ha,55
same,Plant response rating: Deadnettle,[12]; 31 g ai/ha,75
same,Plant response rating: Deadnettle,[12]; 62 g ai/ha,95
same,Plant response rating: Deadnettle,[12]; 125 g ai/ha,100
